# Experimental data published in ChEMBL document CHEMBL1126745, “2,2-Dialkylnaphthalen-1-ones as new potassium channel activators” (J Med Chem, 1993).
# How the values were obtained:
# [1] = organism: Rattus norvegicus; assay: Percentage of inhibition of noradrenaline-induced contractions in rat portal vein at 10 uM (in vitro); type: functional
# [2] = test system: Rattus norvegicus; assay: Change in systolic blood pressure at intervals of 1 hr after oral administration of 1 mg/kg of compound in spontaneously hypertensive rats (in vivo); type: functional, Artery
# [3] = organism: Cavia porcellus; assay: In vitro inhibition of spontaneous tone of guinea pig tracheal spirals; type: functional; conditions: Trachea
# [4] = organism: Rattus norvegicus; assay: In vitro inhibition of noradrenaline-induced contractions in rat portal vein; type: functional
Compound,IC50 [3] [µM],IC50 [4] [µM],inhibition at 10 µM [1] [%],Max fall in blood pressure [2] [mmHg],Delta blood pressure [2] [mmHg]
CC1(C)C=C(n2ccccc2=O)c2ccc(C#N)cc2C1=O,> 10,–,0,41,–
Cn1nc(OC2=CC(C)(C)C(=O)c3ccc(C#N)cc32)ccc1=O,–,–,0,–,24
CC1(C)C(=O)c2ccc(Br)cc2[C@@H](N2CCN=C2NC#N)[C@@H]1O,> 10,–,8,27.6,–
CC1(C)C(=O)c2ccc(Br)cc2[C@@H](Oc2ccccn2)[C@@H]1O,–,–,32,33,–
CC1(C)C(=O)c2ccc(F)cc2[C@@H](n2ccccc2=O)[C@@H]1O,–,–,0,21.5,–
CC1(C)C(=O)c2ccc(C#N)cc2[C@@H](OC2=CC(=O)CC2)[C@@H]1O,> 10,–,9,–,50
CC1(C)C=C(N2CCCC2=O)c2ccc(C#N)cc2C1=O,–,–,0,24.5,–
CC1(C)C(=O)c2ccc(Cl)cc2[C@@H](n2ccccc2=O)[C@@H]1O,–,–,0,–,–
CC(=O)O[C@H]1[C@H](n2ccccc2=O)c2cc(Br)ccc2C(=O)C1(C)C,–,–,38,29,–
COC(=O)c1ccc2c(c1)C(n1ccccc1=O)=CC(C)(C)C2=O,8.5,2.7,–,39,–
COC(=N)c1ccc2c(c1)C(n1ccccc1=O)=CC(C)(C)C2=O,3.1,11,–,–,27.5
CCC1(CC)CCc2cc(OC)ccc2C1=O,> 10,8,–,83,–
CC1(C)C(=O)c2ccc(Br)cc2[C@@H](N2CCS/C2=N\C#N)[C@@H]1O,–,–,26,30.5,–
CC(=O)N[C@@H]1c2cc(C#N)ccc2C(=O)C(C)(C)[C@H]1O,8.7,45,–,28.6,–
CCc1ccc2c(c1)C(n1ccccc1=O)=CC(C)(C)C2=O,5.1,5.5,–,58,–
CC1(C)C(=O)c2ccc(C#N)cc2[C@@H](NC(=O)c2ccoc2)[C@@H]1O,–,–,24,58,–
CC1(C)C=C(n2ccccc2=O)c2cc(F)ccc2C1=O,3.9,19,–,35,–
CC1(C)C=C(n2ccccc2=O)c2cc(Cl)c(Cl)cc2C1=O,0.1,0.7,–,58,–
CC1(C)C=C(N2CCCCC2=O)c2cc(Br)ccc2C1=O,3.5,8,–,43.6,–

# More lines, main results first:
IC50 [3] [µM],IC50 [4] [µM],Compound,inhibition at 10 µM [1] [%],Max fall in blood pressure [2] [mmHg],Delta blood pressure [2] [mmHg]
> 10,–,CC1(C)C=C(N2CCCC2=O)c2ccc(Br)cc2C1=O,11,54.5,–
> 10,–,CC1(C)C(=O)c2ccc(C#N)cc2C(N2CCCC2=O)[C@@H]1O (some centres not stated),12,23,–
> 10,–,CC1(C)C=C(N2CCCC2=O)c2cc(Cl)ccc2C1=O,0,32.5,–
> 10,–,COc1ccc2c(c1)[C@@H](n1ccccc1=O)[C@H](O)C(C)(C)C2=O,0,42.9,–
> 10,3.1,CC1(C)C(=O)c2ccc(Br)cc2[C@@H](N2Cc3ccccc3C2=O)[C@@H]1O,–,24,–
> 10,14,CC1(C)C(=O)c2ccc(C#N)cc2[C@@H](n2ccccc2=O)[C@@H]1O,–,84,–
1.3,0.6,CC1(C)C=C(N2Cc3ccccc3C2=O)c2cc(C#N)ccc2C1=O,–,34,–
4.6,1.5,C=Cc1ccc2c(c1)C(n1ccccc1=O)=CC(C)(C)C2=O,–,30.6,–
